Experiment [1] deals with Mycobacterium tuberculosis. The experiment in a line: Antitubercular activity against Mycobacterium tuberculosis H37Rv. It counts as functional.
The nature of experiment [2]: Inhibition of bovine brain tubulin polymerization after 10 mins by UV-vis spectrophotometric analysis. Also noted: species or system Bos taurus.
The target of experiment [3] is T1, Acetylcholinesterase (Electrophorus electricus, UniProt O42275). The experiment in a line: Inhibition of electric eel AChE.
T1 sequence (O42275 whole entry): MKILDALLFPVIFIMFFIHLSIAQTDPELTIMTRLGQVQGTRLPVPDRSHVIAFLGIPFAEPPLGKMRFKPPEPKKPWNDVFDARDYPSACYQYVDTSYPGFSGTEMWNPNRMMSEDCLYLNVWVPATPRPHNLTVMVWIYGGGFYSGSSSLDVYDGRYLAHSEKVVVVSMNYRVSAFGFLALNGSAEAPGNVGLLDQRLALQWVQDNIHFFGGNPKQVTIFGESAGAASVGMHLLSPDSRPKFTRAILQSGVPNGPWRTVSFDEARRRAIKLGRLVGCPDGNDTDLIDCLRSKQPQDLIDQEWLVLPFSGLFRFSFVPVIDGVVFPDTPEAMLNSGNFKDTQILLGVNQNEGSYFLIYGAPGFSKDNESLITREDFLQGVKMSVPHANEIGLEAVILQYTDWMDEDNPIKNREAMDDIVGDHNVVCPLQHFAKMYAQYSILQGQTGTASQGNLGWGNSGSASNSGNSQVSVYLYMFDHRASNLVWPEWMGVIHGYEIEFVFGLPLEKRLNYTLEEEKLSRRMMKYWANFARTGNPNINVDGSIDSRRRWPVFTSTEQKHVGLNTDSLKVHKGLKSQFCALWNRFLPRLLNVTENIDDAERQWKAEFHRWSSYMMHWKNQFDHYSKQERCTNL
Experiment [4] has as its target Acetylcholinesterase (Electrophorus electricus) (UniProt O42275). The experiment in a line: Potency index, ratio of galantamine IC50 to test compound IC50 for electric eel AChE.
The target of experiment [5] is T1, Acetylcholinesterase. The experiment in a line: Inhibition of electric eel AChE using acetylthiocholine iodide as substrate measured for 120 secs by spectrophotometric analysis.
Experiment [6] addresses T2, Estrogen receptor (Homo sapiens, UniProt P03372).
T2 sequence (P03372 whole entry): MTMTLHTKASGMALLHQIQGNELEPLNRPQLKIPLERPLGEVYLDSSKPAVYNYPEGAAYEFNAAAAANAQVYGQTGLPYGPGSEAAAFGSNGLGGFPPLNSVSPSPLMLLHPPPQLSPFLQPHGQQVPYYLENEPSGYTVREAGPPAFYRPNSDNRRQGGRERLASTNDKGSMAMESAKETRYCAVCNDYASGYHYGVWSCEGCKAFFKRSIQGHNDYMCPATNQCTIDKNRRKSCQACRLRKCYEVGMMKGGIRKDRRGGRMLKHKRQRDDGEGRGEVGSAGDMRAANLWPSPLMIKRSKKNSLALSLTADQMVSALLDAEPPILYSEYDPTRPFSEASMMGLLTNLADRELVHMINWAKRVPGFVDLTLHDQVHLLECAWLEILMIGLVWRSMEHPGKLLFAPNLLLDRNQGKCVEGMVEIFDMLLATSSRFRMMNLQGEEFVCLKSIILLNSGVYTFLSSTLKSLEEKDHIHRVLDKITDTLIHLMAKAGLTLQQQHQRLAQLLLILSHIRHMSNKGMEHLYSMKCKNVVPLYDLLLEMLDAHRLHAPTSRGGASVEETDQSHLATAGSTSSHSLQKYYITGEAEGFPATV
The experiment in a line: Inhibition of human estrogen receptor alpha expressed in human MDA-MB-231 cells assessed as reduction in estrogen-induced transcriptional activation after 6 hrs by beta galactosidase reporter gene assay. It is filed as cell-based. For orientation: In a reporter assay the amount or activity of a reporter protein is the signal.

Experiment [7] addresses T3, Estrogen receptor (Homo sapiens) (UniProt P03372).
T3 sequence (whole entry): T2 sequence (P03372 whole entry)
The experiment in a line: Displacement of [3H] estradiol from human estrogen receptor alpha after 18 hrs by scintillation counting analysis. In general terms: Displacement assays read how much labelled ligand stays bound in the presence of the test substance.

The target in experiment [8] is T2, Estrogen receptor. Nature of the experiment: Inhibition of human estrogen receptor alpha expressed in human MCF7 cells assessed as reduction in estrogen-induced transcriptional activation after 6 hrs by beta galactosidase reporter gene assay. It counts as cell-based.
The target in experiment [9] is T2, Estrogen receptor. Nature of the experiment: Inhibition of human estrogen receptor alpha expressed in human LNCAP cells assessed as reduction in estrogen-induced transcriptional activation after 6 hrs by beta galactosidase reporter gene assay. It counts as cell-based.
For experiment [10], the target named is T2, Estrogen receptor. Nature of the experiment: Inhibition of human estrogen receptor alpha expressed in HEK293 cells assessed as reduction in estrogen-induced transcriptional activation after 6 hrs by beta galactosidase reporter gene assay. It is filed as cell-based.
In experiment [11] the target is Receptor tyrosine-protein kinase erbB-2 (Homo sapiens, UniProt P04626). Nature of the experiment: Inhibition of HER2 in human MCF-7 cells after 24 hrs by immunoblotting analysis. It counts as cell-based. (In general: Immunoblotting shows a protein as a band on a membrane.)
Receptor tyrosine-protein kinase erbB-2, sequence (P04626 whole entry): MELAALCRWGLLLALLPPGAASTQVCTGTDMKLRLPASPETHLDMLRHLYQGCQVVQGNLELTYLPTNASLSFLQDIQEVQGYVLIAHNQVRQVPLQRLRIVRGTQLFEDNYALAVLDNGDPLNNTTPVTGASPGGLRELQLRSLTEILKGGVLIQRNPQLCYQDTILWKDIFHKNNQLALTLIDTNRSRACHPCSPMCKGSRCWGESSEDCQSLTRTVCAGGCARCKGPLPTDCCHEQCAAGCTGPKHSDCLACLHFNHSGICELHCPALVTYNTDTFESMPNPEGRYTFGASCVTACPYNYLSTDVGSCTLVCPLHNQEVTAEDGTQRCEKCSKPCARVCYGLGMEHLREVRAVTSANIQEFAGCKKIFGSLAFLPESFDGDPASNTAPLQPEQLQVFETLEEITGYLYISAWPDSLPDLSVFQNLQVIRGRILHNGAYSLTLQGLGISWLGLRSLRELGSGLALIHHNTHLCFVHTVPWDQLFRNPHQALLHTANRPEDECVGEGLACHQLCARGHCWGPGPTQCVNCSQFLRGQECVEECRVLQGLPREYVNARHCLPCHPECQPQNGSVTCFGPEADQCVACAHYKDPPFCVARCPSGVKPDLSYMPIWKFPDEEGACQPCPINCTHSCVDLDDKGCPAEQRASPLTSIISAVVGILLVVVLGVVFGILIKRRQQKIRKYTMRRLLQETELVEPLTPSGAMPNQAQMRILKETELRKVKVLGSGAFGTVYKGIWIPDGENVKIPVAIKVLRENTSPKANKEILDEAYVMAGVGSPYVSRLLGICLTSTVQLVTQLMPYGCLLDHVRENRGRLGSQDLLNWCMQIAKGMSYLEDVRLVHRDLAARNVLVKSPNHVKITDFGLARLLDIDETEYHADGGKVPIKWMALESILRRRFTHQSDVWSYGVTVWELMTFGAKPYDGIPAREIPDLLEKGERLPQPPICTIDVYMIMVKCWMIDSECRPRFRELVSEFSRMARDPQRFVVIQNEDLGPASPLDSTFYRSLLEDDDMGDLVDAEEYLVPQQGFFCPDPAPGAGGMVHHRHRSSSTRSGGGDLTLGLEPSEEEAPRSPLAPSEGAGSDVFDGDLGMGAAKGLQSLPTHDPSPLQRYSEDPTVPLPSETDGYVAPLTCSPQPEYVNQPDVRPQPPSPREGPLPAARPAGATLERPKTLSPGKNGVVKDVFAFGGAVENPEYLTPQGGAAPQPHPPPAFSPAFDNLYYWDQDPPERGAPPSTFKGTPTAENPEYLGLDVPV
In a further experiment the test system is SK-BR-3. Nature of the experiment: Growth inhibition of human SKBR3 cells. It is filed as functional, cell-based.
Experiment [12] is described as follows: Antiproliferative activity against human MDA435/LCC6 cells. It is filed as functional, cell-based. The note with it: MDA-435/LCC6.
Another experiment concerns L1210. The experiment in a line: Antiproliferative activity against mouse L1210 cells after 2 to 3 days by Coulter counter method. It is filed as functional, cell-based.
The target in experiment [13] is Nitric oxide synthase, inducible (Rattus norvegicus, UniProt Q06518). Nature of the experiment: Inhibition of rat iNOS after 12 to 24 hrs in presence of [gamma32P]ATP by electrophoretic mobility shift assays.
Nitric oxide synthase, inducible, sequence (Q06518 whole entry): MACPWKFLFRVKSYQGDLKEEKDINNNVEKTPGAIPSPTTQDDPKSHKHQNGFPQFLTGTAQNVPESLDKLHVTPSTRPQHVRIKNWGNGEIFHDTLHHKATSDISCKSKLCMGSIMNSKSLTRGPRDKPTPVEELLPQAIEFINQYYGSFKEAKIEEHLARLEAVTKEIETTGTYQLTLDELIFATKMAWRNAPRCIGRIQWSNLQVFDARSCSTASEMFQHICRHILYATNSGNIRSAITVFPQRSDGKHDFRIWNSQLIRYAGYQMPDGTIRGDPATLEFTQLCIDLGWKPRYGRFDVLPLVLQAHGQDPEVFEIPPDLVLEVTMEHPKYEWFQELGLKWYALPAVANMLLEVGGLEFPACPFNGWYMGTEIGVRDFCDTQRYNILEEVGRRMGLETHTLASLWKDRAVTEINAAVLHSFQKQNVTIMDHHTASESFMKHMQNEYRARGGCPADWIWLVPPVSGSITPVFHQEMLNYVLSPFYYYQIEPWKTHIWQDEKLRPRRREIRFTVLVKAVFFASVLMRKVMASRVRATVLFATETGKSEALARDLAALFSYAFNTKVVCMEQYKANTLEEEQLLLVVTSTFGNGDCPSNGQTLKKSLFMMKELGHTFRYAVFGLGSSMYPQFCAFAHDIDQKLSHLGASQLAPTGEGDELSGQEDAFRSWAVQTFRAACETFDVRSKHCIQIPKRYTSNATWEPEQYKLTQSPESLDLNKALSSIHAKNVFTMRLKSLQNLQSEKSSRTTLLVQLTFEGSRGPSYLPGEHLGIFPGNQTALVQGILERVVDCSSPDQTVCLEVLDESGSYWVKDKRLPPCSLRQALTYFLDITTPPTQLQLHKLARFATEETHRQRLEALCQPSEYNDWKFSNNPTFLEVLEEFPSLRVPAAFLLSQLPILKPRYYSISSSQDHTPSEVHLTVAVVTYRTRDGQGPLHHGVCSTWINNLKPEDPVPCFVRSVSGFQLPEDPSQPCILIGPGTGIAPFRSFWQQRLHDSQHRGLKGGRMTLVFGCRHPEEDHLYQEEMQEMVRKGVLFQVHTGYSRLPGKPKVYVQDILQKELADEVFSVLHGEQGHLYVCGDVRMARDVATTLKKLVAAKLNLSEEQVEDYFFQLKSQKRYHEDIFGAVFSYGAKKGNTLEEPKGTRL

Here are results for twelve compounds from ChEMBL document CHEMBL4229384, “Success stories of natural product-based hybrid molecules for multi-factorial diseases” (Eur J Med Chem, 2018).

Values after ≈ are worked out from the molar mass of the structure shown.

Acetylcholinesterase (Electrophorus electricus), sequence (O42275 24-633 limits assumed): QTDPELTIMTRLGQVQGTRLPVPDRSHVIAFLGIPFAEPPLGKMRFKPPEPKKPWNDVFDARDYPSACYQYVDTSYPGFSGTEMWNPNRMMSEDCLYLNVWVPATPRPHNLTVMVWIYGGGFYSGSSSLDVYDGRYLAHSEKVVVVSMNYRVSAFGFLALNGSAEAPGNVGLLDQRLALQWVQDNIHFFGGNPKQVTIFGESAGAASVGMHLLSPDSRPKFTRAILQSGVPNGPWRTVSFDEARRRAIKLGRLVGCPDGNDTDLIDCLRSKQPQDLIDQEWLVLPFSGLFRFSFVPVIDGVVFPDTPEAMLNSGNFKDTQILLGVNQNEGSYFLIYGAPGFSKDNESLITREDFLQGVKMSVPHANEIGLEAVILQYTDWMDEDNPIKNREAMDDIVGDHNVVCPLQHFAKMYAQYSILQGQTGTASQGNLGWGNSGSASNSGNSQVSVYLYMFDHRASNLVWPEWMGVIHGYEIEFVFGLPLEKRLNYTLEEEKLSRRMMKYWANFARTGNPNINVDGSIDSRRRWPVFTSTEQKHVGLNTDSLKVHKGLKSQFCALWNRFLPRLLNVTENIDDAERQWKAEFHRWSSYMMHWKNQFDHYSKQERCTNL

A word on the MIC: it is the lowest concentration found to suppress growth. Higher therefore signals weaker potency. Regarding `C[C@@]12CC[C@@H]3[C@@](CC[C@H]4[C@@]3(C)CCC[C@@]4(C)C(=O)O)(C/C1=N\NC(=O)c1ccncc1)C2`, the MIC in [1] was in the range of 10 to 20 µg/mL (≈ 22.9 to 45.7 µM).

A word on the IC50: it is the concentration that inhibits the measured activity by half. Consider `COc1cc2c(ccc1=O)[C@H]1CC[C@]3(C)[C@@H](O)CC[C@H]3[C@@H]1CC2`, for which half-maximal inhibition in [2] (IC50) required 2100 nM. `COc1ccc2c3c1O[C@H]1C[C@@H](O)C=C[C@]31CC[N+](CCCCCCCCCCN1C(=O)c3ccccc3C1=O)=C2` showed an IC50 at Acetylcholinesterase [3] of 22 nM. For the same compound, the Ratio IC50 in experiment [4] was in the range of 16 to 36. `COc1ccc2c3c1O[C@H]1C[C@@H](O)CC[C@@]31CCN(CCCCCCN1CC[C@@]34C=C[C@H](O)C[C@@H]3Oc3c(OC)ccc(c34)C1)C2` showed an IC50 at Acetylcholinesterase [5] of 450 nM. For the compound `C[C@]12CC[C@@H]3c4ccc(O)cc4CC[C@H]3[C@@H]1CC[C@@]2(O)C#CC(=O)OCC1CC#C/C=C\C#CCC1` (stereo partly drawn), the IC50 on Estrogen receptor [6] came to 48000 nM; on Estrogen receptor [8], 31000 nM; at Estrogen receptor [9], 33000 nM; at Estrogen receptor [10], 10000 nM. In experiment [7], this compound came in with an Activity of 0.51 µM. As to `CO[C@H]1/C=C\C=C(/C)C(=O)NC2=CC(=O)C(NCCCCNC3=C4C[C@@H](C)C[C@H](OC)[C@H](O)[C@@H](C)/C=C(\C)[C@H](OC(N)=O)[C@@H](OC)/C=C\C=C(/C)C(=O)NC(=CC3=O)C4=O)=C(C[C@@H](C)C[C@H](OC)[C@H](O)[C@@H](C)/C=C(\C)[C@@H]1OC(N)=O)C2=O`, the IC50 in experiment [11] was found to be 60 nM; in the experiment on SK-BR-3, 20 nM.

On to `CC(=O)O[C@H]1C(=O)[C@@]2(C)[C@H]([C@@H]3OC(=O)c4ccccc4OC/C=C/CC[C@H](NC(=O)OC(C)(C)C)[C@@H](O)C(=O)O[C@@H]4C[C@]3(O)C(C)(C)C1=C4C)[C@]1(OC(C)=O)CO[C@@H]1C[C@@H]2O`, for which the midpoint of inhibition in experiment [12], the IC50, lay at 390 nM. For the compound `C[C@@]12CC[C@@H]3[C@@](CC[C@H]4[C@@]3(C)CCC[C@@]4(C)C(=O)O)(C/C1=N\NC(=O)c1cccnc1)C2`, the MIC in experiment [1] was 10 to 20 µg/mL (≈ 22.9 to 45.7 µM).

`COC(=O)[C@]1(C)CCC[C@@]2(C)[C@@H]3CC[C@@]4(C)C[C@]3(CC[C@@H]21)C/C4=N\NC(=O)c1ccncc1` gave an MIC in experiment [1] of 10 to 20 µg/mL (≈ 22.1 to 44.3 µM).

For `Cc1n[nH]c2c(O)cc3c(c12)C(CCl)CN3C(=O)c1cc(C(=O)Nc2cc(C(=O)Nc3cc(C(=O)Nc4cc(C(=O)NCCC(=N)N)n(C)c4)n(C)c3)n(C)c2)n(C)n1` (stereo not drawn), the IC50 in the experiment with L1210 came out at 7400 nM. In experiment [1], `COC(=O)[C@]1(C)CCC[C@@]2(C)[C@@H]3CC[C@@]4(C)C[C@]3(CC[C@@H]21)C/C4=N\NC(=O)c1ccccn1` gave an MIC of 10 to 20 µg/mL (≈ 22.1 to 44.3 µM). In the case of `CC1(C)CC[C@]2(C(=O)O)CC[C@]3(C)C(=CC[C@@H]4[C@@]5(C)C=CC(=O)C=C5CC[C@]43C)[C@@H]2C1`, the IC50 in [13] was found to be 900 nM.
